{
  "source": "patent US9970938B2",
  "about": "“Use of BUBR1 as a biomarker of drug response to furazanobenzimidazoles” (Basilea Pharmaceutica AG, priority 2011, dated 2018)",
  "type_in_all_cases": "cell-based, human",
  "key": {"A549": {"tested_on": "A549", "experiment": "Crystal Violet assay of BAL27862-resistant cell line versus parental line", "excerpt": "(§1) BAL27862-resistant sublines of human non-small cell lung cancer (H460 ATCC reference HTB-177; A549 ATCC reference CCL-185), ovarian cancer (SKOV3 ATCC reference HTB-77) lines were generated by long-term selection in complete cell culture medium (RPMI-1640 containing 10% FCS; Sigma-Aldrich) by stepwise increasing concentrations of BAL27862. […] The resistant sublines were expanded at the highest tolerated BAL27862 concentration and subsequently frozen and stored in liquid nitrogen.\n(§2) After medium was removed, cells were fixed and stained by adding 50 μl Crystal Violet Staining (0.2% Crystal Violet in 50% Methanol) per well. Plates were incubated for 1 hour at room temperature. Subsequently the stain was decanted and plates were washed 4 times with double-distilled water. Plates were air-dried for several hours. Stain was dissolved by adding 100 μl buffer (0.1 M Tris pH 7.5, 0.2% SDS, 20% Ethanol) per well and shaking the plates. Absorbance at 590 nm was measured using a SpectraMax M2e plate reader (Molecular Devices). Anti-proliferative IC50 values were calculated from concentration response curves using GraphPad Prism software. Resistance factors were calculated as a ratio of BAL27862 IC50 in the resistant line variant versus the IC50 in the parental line."}, "H460": {"tested_on": "H460", "experiment": "Crystal Violet assay of BAL27862-resistant cell line versus parental line", "excerpt": "as §1, §2"}, "SKOV3 resistant 1": {"tested_on": "SKOV3 resistant 1", "experiment": "Crystal Violet assay of BAL27862-resistant cell line versus parental line", "excerpt": "as §1, §2"}, "SKOV3 resistant 2": {"tested_on": "SKOV3 resistant 2", "experiment": "Crystal Violet assay of BAL27862-resistant cell line versus parental line", "excerpt": "as §1, §2"}, "HeLa cells [1]": {"tested_on": "HeLa cells", "experiment": "BUBR1 siRNA pool, tumour cell phenotype and cell number by immunostaining", "conditions": "50 nM BAL27862, 24 hours, 48 hours after siRNA", "description": "In order to show BUBR1 is a biomarker of resistance, siRNA experiments were performed. For siRNA experiments to assess effects on tumour cell phenotype and numbers (FIG. 8), HeLa (ATCC reference CCL-2) cervical cancer cells were cultured at 37° C. and 5% CO2 in DMEM with 10% FCS (Invitrogen). 1000 HeLa cells per well were seeded into black 384 well multititer plates (BD Falcon). Cells were reversely transfected with 20 nM non-targeting control siRNA (ON-Target-plus non-targeting pool D001810, Dharmacon) or a mixture of four BUBR1 siRNAs (ON-Target-plus Smartpool L-004101, Dharmacon, see sequence information below) using Dharmafect1 (Dharmacon, Thermo) transfection reagent. 48 hours after cell seeding and siRNA transfection, one replicate pair of siRNA clones was treated with BAL27862 (50 nM, 0.1% DMSO) and another replicate pair with control solution (0.1% DMSO) for 24 hours. […] Based on the immunostaining, the morphology of treated cells was analysed using a multiparametric approach (BD Pathway 855 fluorescence microscope; 20× objective) with appropriate software. The number of cells per well was also calculated based on Hoe33342 staining of nuclei. […]"}, "HeLa cells [2]": {"tested_on": "HeLa cells", "experiment": "YO-PRO assay of siRNA-treated cells", "conditions": "BUBR1 siRNA pool, 48 hours treatment", "description": "For siRNA experiments to assess effects on BUBR1 expression levels by immunoblotting and effects on tumour cell proliferation and viability using the YO-PRO assay (FIGS. 7, 9,10 and 11), and Crystal Violet Assay (FIGS. 12 and 13), cells were seeded in 6 well plates at an appropriate density: HeLa (cervical cancer cells; ATCC reference CCL-2) 2.5E+04 (for YO-PRO) or 4.0E+04 (for Crystal Violet) cells per well, H460 (NSCLC cells; ATCC reference HTB-177) 5.0E+04 cells per well, MCF-7 (breast carcinoma cells; ATCC reference HTB-22) 2.4E+05 cells per well, Panc1 (pancreatic cancer cells, ATCC reference CRL-1469) and HCT116 (colon cancer cells, ATCC reference CCI-247) 8E+04 cells per well, and were cultured at 37° C. and 5% CO2 in RPMI-1640 or DMEM containing 10% FCS (complete medium). […]\n12.5 μl YO-PRO®-1 iodide (491/509)(Invitrogen/Molecular Probes, # Y-3603; 1 mM in DMSO) were added to 1 ml 5-times concentrated YO-PRO buffer (100 mM Na-citrate, pH 4.0; 134 mM NaCl) to produce the YO-PRO Mix. […] The uptake of YO-PRO dye into cells was assessed by using a SpectraMax M2^e plate reader (Molecular Devices) using 485 nm excitation and 538 nm emission at a cutoff of 530 nm. […] Fluorescent read-out was performed in a SpectraMax M2^e plate reader (Molecular Devices) using 485 nm excitation and 538 nm emission at a cut off of 530 nm. […]"}},
  "data": [
    {"smiles": "N#CCCNc1nonc1-c1nc2ccccc2n1CC(=O)c1ccc(N)cc1", "note": "[BAL27862, 3-(4-{1-[2-(4-Amino-phenyl)-2-oxo-ethyl]-1H-benzoimidazol-2-yl}-furazan-3-ylamino)-propionitrile]", "values": [
      {"measurement": "resistance factors versus parental lines (based on IC50 determinations)", "setting": "A549", "value": 3.0, "unit": "fold"},
      {"measurement": "resistance factors versus parental lines (based on IC50 determinations)", "setting": "H460", "value": 5.3, "unit": "fold"},
      {"measurement": "resistance factors versus parental lines (based on IC50 determinations)", "setting": "SKOV3 resistant 1", "value": 7.6, "unit": "fold"},
      {"measurement": "resistance factors versus parental lines (based on IC50 determinations)", "setting": "SKOV3 resistant 2", "value": 11.6, "unit": "fold"},
      {"measurement": "HeLa cell number and fraction of cells with a normal phenotype after pooled BUBR1 siRNA", "setting": "HeLa cells [1]", "value": "BUBR1 was required for optimal effects"},
      {"measurement": "antiproliferative effect with reduced BUBR1 expression", "setting": "HeLa cells [2]", "value": "dramatically reduced"},
      {"measurement": "tumour cell death with reduced BUBR1 expression", "setting": "HeLa cells [2]", "value": "no increase in tumour cell death observed"}
    ]}
  ]
}
